Source: ChEMBL document CHEMBL4033666, “Synthesis and mechanistic evaluation of novel N'-benzylidene-carbohydrazide-1H-pyrazolo[3,4-b]pyridine derivatives as non-anionic antiplatelet agents” (Eur J Med Chem, 2017)
Active and inactive are the calls of the source. Unless noted, no cut-off for these calls is given here.

Assays:
Platelet [1] = assay: Antiplatelet activity in human platelet rich plasma assessed as inhibition of arachidonic acid-induced platelet aggregation at 100 uM preincubated for 2 mins followed by arachidonic acid addition by turbidimetric method relative to control; assay type: functional
Platelet [2] = assay: Antiplatelet activity in human platelet rich plasma assessed as inhibition of ADP-induced platelet aggregation at 100 uM preincubated for 2 mins followed by ADP addition by turbidimetric method relative to control; assay type: cell-based
Platelet [3] = assay: Antiplatelet activity in human platelet rich plasma assessed as inhibition of collagen-induced platelet aggregation at 100 uM preincubated for 2 mins followed by collagen addition by turbidimetric method relative to control; assay type: cell-based
Platelet [4] = assay: Antiplatelet activity in human platelet rich plasma assessed as inhibition of epinephrine-induced platelet aggregation at 100 uM preincubated for 2 mins followed by epinephrine addition by turbidimetric method relative to control; assay type: cell-based
Platelet [5] = assay: Antiplatelet activity in human platelet rich plasma assessed as inhibition of arachidonic acid-induced platelet aggregation preincubated for 2 mins followed by arachidonic acid addition by turbidimetric method relative to control; assay type: functional, cell-based
Platelet [6] = assay: Antiplatelet activity in human platelet rich plasma assessed as inhibition of ADP-induced platelet aggregation preincubated for 2 mins followed by ADP addition by turbidimetric method; assay type: cell-based
Platelet [7] = assay: Antiplatelet activity in human platelet rich plasma assessed as inhibition of collagen-induced platelet aggregation preincubated for 2 mins followed by collagen addition by turbidimetric method; assay type: cell-based
Platelet [8] = assay: Antiplatelet activity in human platelet rich plasma assessed as inhibition of epinephrine-induced platelet aggregation preincubated for 2 mins followed by epinephrine addition by turbidimetric method; assay type: cell-based
[9] = target: T1, Prostaglandin G/H synthase 1 (Ovis aries, UniProt P05979); assay: Inhibition of ovine COX-1 assessed as reduction in PGH2 production up to 100 uM using arachidonic acid as substrate preincubated for 5 mins followed by substrate and hematin addition measured after 2 mins by ELISA relative to control; details: sheep
T1 sequence (P05979 whole entry): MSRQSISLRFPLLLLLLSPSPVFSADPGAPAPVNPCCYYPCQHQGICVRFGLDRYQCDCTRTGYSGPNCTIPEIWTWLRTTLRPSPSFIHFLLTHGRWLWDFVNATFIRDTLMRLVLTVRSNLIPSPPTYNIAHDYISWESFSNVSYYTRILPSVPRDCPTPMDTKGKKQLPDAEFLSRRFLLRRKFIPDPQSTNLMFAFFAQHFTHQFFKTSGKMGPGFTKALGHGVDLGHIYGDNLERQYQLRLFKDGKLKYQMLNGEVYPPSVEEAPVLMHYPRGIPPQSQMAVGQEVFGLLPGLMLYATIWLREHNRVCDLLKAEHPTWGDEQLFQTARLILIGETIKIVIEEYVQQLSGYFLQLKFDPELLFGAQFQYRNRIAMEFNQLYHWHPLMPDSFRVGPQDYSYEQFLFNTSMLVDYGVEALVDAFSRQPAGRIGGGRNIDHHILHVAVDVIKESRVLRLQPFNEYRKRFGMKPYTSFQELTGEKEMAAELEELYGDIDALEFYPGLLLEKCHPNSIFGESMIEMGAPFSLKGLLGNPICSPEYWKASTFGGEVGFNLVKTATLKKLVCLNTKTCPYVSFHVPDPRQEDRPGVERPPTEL

[10] = target: T2, Prostaglandin G/H synthase 2 (Homo sapiens, UniProt P35354); assay: Inhibition of recombinant human COX-2 assessed as reduction in PGH2 production up to 100 uM using arachidonic acid as substrate preincubated for 5 mins followed by substrate and hematin addition measured after 2 mins by ELISA relative to control
T2 sequence (P35354 whole entry): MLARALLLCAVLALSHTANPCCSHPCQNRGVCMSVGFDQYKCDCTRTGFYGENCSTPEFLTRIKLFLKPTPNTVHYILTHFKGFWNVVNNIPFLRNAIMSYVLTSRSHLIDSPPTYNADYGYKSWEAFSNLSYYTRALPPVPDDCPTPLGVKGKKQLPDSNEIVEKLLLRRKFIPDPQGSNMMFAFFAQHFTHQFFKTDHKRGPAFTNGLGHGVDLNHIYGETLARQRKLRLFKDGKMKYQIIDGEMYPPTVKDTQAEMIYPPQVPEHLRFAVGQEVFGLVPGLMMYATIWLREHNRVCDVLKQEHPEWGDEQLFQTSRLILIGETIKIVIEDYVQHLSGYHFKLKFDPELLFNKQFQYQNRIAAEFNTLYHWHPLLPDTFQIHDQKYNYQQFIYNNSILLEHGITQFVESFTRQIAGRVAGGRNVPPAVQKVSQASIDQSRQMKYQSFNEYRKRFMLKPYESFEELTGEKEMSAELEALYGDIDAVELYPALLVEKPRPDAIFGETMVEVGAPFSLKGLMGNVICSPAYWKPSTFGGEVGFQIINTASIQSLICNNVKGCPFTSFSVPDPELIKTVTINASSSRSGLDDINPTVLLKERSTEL

[11] = target: T3, Thromboxane-A synthase (Homo sapiens) (UniProt P24557); assay: Inhibition of TXS in human platelet rich plasma assessed as decrease in TXB2 production at 100 uM using arachidonic acid after 5 mins by ELISA
T3 sequence (whole entry): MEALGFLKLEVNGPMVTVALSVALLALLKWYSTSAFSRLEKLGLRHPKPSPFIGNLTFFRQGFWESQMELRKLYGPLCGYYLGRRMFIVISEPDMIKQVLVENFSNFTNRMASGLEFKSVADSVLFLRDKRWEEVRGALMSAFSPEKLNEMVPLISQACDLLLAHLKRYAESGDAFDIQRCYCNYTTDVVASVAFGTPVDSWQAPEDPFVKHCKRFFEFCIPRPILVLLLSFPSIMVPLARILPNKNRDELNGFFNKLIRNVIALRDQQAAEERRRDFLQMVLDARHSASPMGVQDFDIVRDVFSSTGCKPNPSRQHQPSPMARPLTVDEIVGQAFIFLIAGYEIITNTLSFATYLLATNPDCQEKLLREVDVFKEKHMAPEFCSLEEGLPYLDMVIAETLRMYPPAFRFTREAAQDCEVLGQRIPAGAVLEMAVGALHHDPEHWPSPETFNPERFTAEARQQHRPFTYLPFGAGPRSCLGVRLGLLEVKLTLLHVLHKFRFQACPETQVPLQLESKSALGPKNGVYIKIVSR

Platelet [12] = assay: Potency index, ratio of aspirin IC50 to test compound IC50 for inhibition of arachidonic acid-induced platelet aggregation in human platelet rich plasma; assay type: functional
[13] = Binding affinity to DOPC/DOPS large unilamellar vesicles assessed as blue shift at 100 uM by DAPI staining based fluorescence assay
Platelet [14] = assay: Drug uptake in human platelet assessed as co-localization with CD31 at 100 uM by epifluorescence assay; assay type: ADME, cell-based
Platelet [15] = assay: Drug uptake in human platelet assessed as co-localization with CD31 at 100 uM by confocal microscopy analysis; assay type: ADME, cell-based
[16] = Hemolytic activity against human erythrocytes after 3 hrs relative to control; assay type: ADME, cell-based, Erythrocyte; details: read-out: Activity
Cytochrome P450 3A4 = Cytochrome P450 3A4 (Homo sapiens, UniProt P08684); assay: Inhibition of recombinant human CYP3A4 expressed in baculosomes using BOMR as substrate preincubated for 10 mins followed by substrate/NADP+ addition measured for 1 hr; assay type: ADME; details: for inhibition (INH): human, recombinant enzyme, 1 h
Chain of Cytochrome P450 3A4 (P08684 whole entry): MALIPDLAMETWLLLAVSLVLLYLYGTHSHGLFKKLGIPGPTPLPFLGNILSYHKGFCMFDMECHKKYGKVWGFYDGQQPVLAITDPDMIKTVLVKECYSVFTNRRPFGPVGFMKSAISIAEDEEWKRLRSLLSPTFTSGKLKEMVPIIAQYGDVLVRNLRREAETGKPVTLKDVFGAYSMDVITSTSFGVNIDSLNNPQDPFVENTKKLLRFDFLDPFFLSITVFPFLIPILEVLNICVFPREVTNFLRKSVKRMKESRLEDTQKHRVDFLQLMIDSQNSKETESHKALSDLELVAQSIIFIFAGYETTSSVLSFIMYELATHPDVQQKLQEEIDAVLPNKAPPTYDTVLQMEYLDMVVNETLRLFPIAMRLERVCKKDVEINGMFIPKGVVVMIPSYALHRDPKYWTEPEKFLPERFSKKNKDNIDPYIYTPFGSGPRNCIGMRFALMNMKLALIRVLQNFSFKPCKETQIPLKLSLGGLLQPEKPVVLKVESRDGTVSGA

Platelet [17] = assay: Antiplatelet activity in human platelet rich plasma assessed as inhibition of […]-induced platelet aggregation at 100 uM preincubated for 2 mins followed by […] addition by turbidimetric method; assay type: functional, cell-based
Blood = assay: Reduction of clot retraction in human whole blood after 2 hrs; assay type: ADME, tissue-based
Plasma [18] = assay: Change in prothrombin time in human plasma at 100 uM incubated for 15 mins at room temperature and 2 mins at 37 degC in presence of calcium thromboplastin; assay type: ADME, cell-free
Plasma [19] = assay: Change in activated partial thromboplastin time in human plasma at 100 uM incubated for 15 mins at room temperature and 2 mins at 37 degC in presence of CaCl2; assay type: ADME, cell-free
[20] = target: Prostaglandin G/H synthase 1 (Homo sapiens, UniProt P23219); assay: Inhibition of COX1 in human platelet rich plasma assessed as decrease in PGE2 production at 100 uM using arachidonic acid as substrate after 5 mins by ELISA
Chain of Prostaglandin G/H synthase 1 (Homo sapiens, UniProt P23219) (P23219 whole entry): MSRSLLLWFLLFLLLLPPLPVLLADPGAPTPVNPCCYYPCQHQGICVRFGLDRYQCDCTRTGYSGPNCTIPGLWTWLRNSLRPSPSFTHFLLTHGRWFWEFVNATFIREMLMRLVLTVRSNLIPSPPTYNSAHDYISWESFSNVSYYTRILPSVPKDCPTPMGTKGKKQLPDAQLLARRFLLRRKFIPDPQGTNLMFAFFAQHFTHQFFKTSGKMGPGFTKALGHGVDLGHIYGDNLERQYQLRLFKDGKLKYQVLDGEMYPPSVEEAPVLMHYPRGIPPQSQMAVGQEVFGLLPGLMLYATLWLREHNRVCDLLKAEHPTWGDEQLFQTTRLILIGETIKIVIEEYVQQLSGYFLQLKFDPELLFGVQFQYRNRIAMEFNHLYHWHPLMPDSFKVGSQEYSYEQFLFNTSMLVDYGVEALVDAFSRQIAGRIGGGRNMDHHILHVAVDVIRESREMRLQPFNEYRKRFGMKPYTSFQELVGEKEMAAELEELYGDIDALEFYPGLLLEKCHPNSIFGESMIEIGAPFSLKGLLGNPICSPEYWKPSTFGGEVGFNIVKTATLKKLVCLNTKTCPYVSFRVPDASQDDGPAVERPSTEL

Platelet [21] = assay: Potency index, ratio of ozagrel IC50 to test compound IC50 for inhibition of arachidonic acid-induced platelet aggregation in human platelet rich plasma; assay type: functional

Row | Structure (SMILES) | inhibition at 100 µM (Platelet [1]) [%] | inhibition at 100 µM (Platelet [2]) [%] | inhibition at 100 µM (Platelet [3]) [%] | inhibition at 100 µM (Platelet [4]) [%] | IC50 (Platelet [5]) [µM] | IC50 (Platelet [6]) [µM] | IC50 (Platelet [7]) [µM] | IC50 (Platelet [8]) [µM] | inhibition (INH) [9] | inhibition (INH) [10] | inhibition [11] | Activity [13] | Drug uptake (Platelet [14]) | Drug uptake (Platelet [15]) | hemolysis at 3 h [16] [%] | inhibition (Platelet [17]) | Activity (Blood) | Activity (Plasma [18]) | Activity (Plasma [19]) | inhibition (INH) [20] | further results
1 | Cc1cc(C(=O)N/N=C/c2ccc(F)cc2)c2c(C)nn(-c3ccccc3)c2n1 | 95.4 | 13.8 | 9.19 | 3.88 | 3.67 to 10.2 | > 100 | > 100 | > 100 | Not Active | Not Active | Active | Active | Active | Active | 5 | inactive | Non-Toxic | Non-Toxic | Non-Toxic | Not Active | Ratio IC50 (Platelet [12]): <=10; inhibition (INH) (Cytochrome P450 3A4): Dose-dependent effect; Ratio IC50 (Platelet [21]): <=10
2 | CC(=O)Oc1ccccc1C(=O)O [ASPIRIN] | 96.6 | 41.9 | 85.3 | 58.6 | 37.6 |  |  |  |  |  | Active |  |  |  |  |  |  |  |  |  | 
3 | O=C(O)/C=C/c1ccc(Cn2ccnc2)cc1 [OZAGREL] |  |  |  |  | 53.1 |  |  |  |  |  | Active |  |  |  |  |  |  |  |  |  | 
4 | Cc1nn(-c2ccccc2)c2nc(C(F)(F)F)cc(C(=O)N/N=C/c3ccc(O)cc3)c12 | 10.4 | 12.5 | 13.3 | 15.9 |  |  |  |  |  |  |  |  |  |  | 99 |  |  | Non-Toxic | Non-Toxic |  | 
5 | Cc1ccc(/C=N/NC(=O)c2cc(C)nc3c2c(C)nn3-c2ccccc2)cc1 | 89.2 | 6.2 | 5.58 | 0 | 3.67 to 10.2 | > 100 | > 100 | > 100 | Not Active | Not Active | Active | Active | Active | Active |  | inactive | Non-Toxic | Non-Toxic | Non-Toxic | Not Active | Ratio IC50 (Platelet [12]): <=10; inhibition (INH) (Cytochrome P450 3A4): Dose-dependent effect; Ratio IC50 (Platelet [21]): <=10
6 | Cc1cc(C(=O)N/N=C/c2ccc([N+](=O)[O-])cc2)c2c(C)nn(-c3ccccc3)c2n1 | 95 | 0 | 4.1 | 4.15 | 78.9 | > 100 | > 100 | > 100 | Not Active | Not Active | Active | Active | Active | Active | 7.3 | inactive | Non-Toxic | Non-Toxic | Non-Toxic | Not Active | IC50 (Cytochrome P450 3A4): 156 µM
7 | Cc1nn(-c2ccccc2)c2nc(C(F)(F)F)cc(C(=O)N/N=C/c3ccccc3)c12 | 0.27 | 5.98 | 0 | 14.1 |  |  |  |  |  |  |  |  |  |  |  |  |  | Non-Toxic | Non-Toxic |  | 
8 | CCOc1ccc(/C=N/NC(=O)c2cc(C(F)(F)F)nc3c2c(C)nn3-c2ccccc2)cc1 | 1.26 | 5.55 | 2 | 13.1 |  |  |  |  |  |  |  |  |  |  | 30 |  |  | Non-Toxic | Non-Toxic |  | 
